Experimental data from patent publication EP0840781B1, “METHODS AND DEVICES FOR THE REMOVAL OF PSORALENS FROM BLOOD PRODUCTS” (Cerus Corporation, priority 1995, dated 1996).
Like-named read-outs stand apart in the source and are kept apart here.

What was measured:
Male Balb/c mice = settings: for bone marrow toxicity or micronucleus formation: experiment repeated using increased dose levels
Procedure: Male Balb/c mice were then injected with 0.1 ml of a compound solution via the tail vein. At least 3 mice were injected per dose level Saline only was used as a negative control. For a positive control, cyclophosphamide (cycloPP) was administered at a dose of 30 mg/kg. In the experimental group, the injections were repeated once per day for four days. In the positive control group, the sample was administered only once, on day three. On day 5, several microliters of blood were withdrawn from each subject and smeared on a glass slide. Cells were fixed in absolute methanol and stored in a slide rack.
For analysis, cells were stained with acridine orange and visualized under a fluorescence microscope by counting: (i) the number of reticulocytes per 5000 erythrocytes; and (ii) the number of micronucleated reticulocytes per 1000 reticulocytes. Reticulocytes were distinguished by their red fluorescence due to the presence of RNA. Micronuclei were distinguished by their green fluorescence due to the presence of DNA. The percentage of reticulocytes (%PCE) was then calculated. A decrease in the frequency of erythrocytes, represented by an increase in the percentage of reticulocytes, is an indication of bone marrow toxicity. The percentage of reticulocytes with micronuclei (%PCE with MN) was also calculated. An increase in %PCE with MN is a measure of elastogenicity.
After initial results were determined, the experiment was repeated using increased dose levels, until: (i) Micronucleus formation was seen; or (ii). Bone marrow toxicity was observed; or (iii) The lethal dose was reached; or (iv) A dose of 5 g/kg was administered.

[1] = tested on: Salmonella typhimurium tester strains TA97a, TA98, TA100, TA102, TA1537 and TA1538; settings: for revertant colonies, TA1538 +S9 (Table 18 (A)): background 123; for revertant colonies, TA1538 -S9 (Table 18 (A)): background 126; for revertant colonies, TA1537 -S9 (Table 18 (A)): background 20; for revertant colonies, TA1537 +S9 (Table 18 (A)): background 25; for revertant colonies, TA98 -S9 / revertant colonies, TA98 +S9: Table 19 (A) experiment; for revertant colonies, TA98 -S9: background 17; for revertant colonies, TA98 +S9: background 28
Summary of the method: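 Ames pre-incubation test in S. typhimurium TA97a, TA98, TA1537, TA1538 (frameshift) and TA100, TA102 (base-substitution), with or without 10% Aroclor 1254-induced rat liver S-9. Test solutions at 0–500 µg/mL pre-incubated 20 min at 37 °C, plated in histidine/biotin top agar; revertant colonies counted after 44 h at 37 °C.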

HIV-1 = settings: 1 Minute Irradiation
Procedure: Pathogen inactivation efficiency of several compounds described herein was evaluated by examining the ability of the compounds to inactivate cell-free virus (HIV). Inactivation of cell-free HIV was performed as follows.
As in the R17 assay, small aliquots of the compounds listed in TABLES 10 and 11, below, at the concentrations listed in the table, were added to stock HIV-1 to a total of 0.5 mL. The stock HIV (10^5 - 10^7 plaque forming units/mL) was in DMEM/15% FBS. […] Controls included HIV-I stock only, HIV-1 plus UVA only, and HIV-I plus the highest concentration of each psoralen tested, with no UVA. Post irradiation. all samples were store frozen at -70° C until assayed for infectivity by a microtiter plaque assay. Aliquots for measurement of residual HIV infectivity in the samples treated with a compound of the present invention were withdrawn and cultured.
Residual HIV infectivity was assayed using an MT-2 infectivity assay. […] The assay medium was 85% DMEM (with a high glucose concentration) containing 100 µg of streptomycin, 100 U of penicillin, 50 µg of gentamicin, and 1 µg of amphotericin B per mL, 15% FBS and 2 µg of Polybrene (Sigma Chemical Co., St. Louis, Mo.) per mL. Test and control samples from the inactivation procedure were diluted in 50% assay medium and 50% normal human pooled plasma. The samples were serially diluted directly in 96-well plates (Coming Glass Works, Coming, N.Y.). The plates were mixed on an oscillatory shaker for 30 seconds and incubated at 37°C in a 5% CO2 atmosphere for 1 to 18 hours. […] After an additional 1 hour of incubation at 37°C in 5% CO2, 0.075 mL of assay medium containing 1.6% SeaPlaque agarose (FMC Bioproducts, Rockland, Maine) and prewarmed to 38.5°C was added to each well. The plates were kept at 37°C for a few minutes until several plates had accumulated and then centrifuged in plate carriers at 600 x g for 20 minutes in a centrifuge precooled to 10°C. In the centrifuge, cell monolayers formed prior to gelling of the agarose layer. The plates were incubated for 5 days at 37°C in 5% CO2 and stained by the addition of 0.05 mL of 50 µg/mL propidium iodide (Sigma Chemical Co.) in phosphate-buffered saline (pH 7.4) to each well. After 24 to 48 hours, the red fluorescence-stained microplaques were visualized by placing the plates on an 8,000 µW/cm^2 304 nm UV light box (Fotodyne, Inc., New Berlin, Wis.). The plaques were counted at a magnification of x20 to x25 through a stereomicroscope.

[2] = two-fold or greater increase in revertants above background and dose dependent response
[3] = 16 µM, HIV Starting Titer Approximately 5.4 Logs (Table 11)
[4] = 32 µM, HIV Starting Titer Approximately 5.4 Logs (Table 11)
[5] = 64 µM, HIV Starting Titer Approximately 5.4 Logs (Table 11)

Cc1oc2c(C)c3oc(=O)cc(C)c3cc2c1CNCCCCN [Compound 6, 4'-(6-amino-2-aza)hexyl4,5',8-trimethylpsoralen]
PCE/RBC (%) (Male Balb/c mice; Dose 45 mg/kg, tail vein, once per day for four days, blood on day 5): 3.79 ± 10.41%
bone marrow toxicity or micronucleus formation (Male Balb/c mice): the acutely lethal dose was reached before there were any signs of bone marrow toxicity or micronucleus formation
revertant colonies, TA1538 +S9 ([1]; 5 µg/plate): 0
revertant colonies, TA1538 -S9 ([1]; 5 µg/plate): -5
revertant colonies, TA1538 +S9 (Table 18 (A)) ([1]; 5 µg/plate): 12
revertant colonies, TA1538 -S9 (Table 18 (A)) ([1]; 5 µg/plate): -32
revertant colonies, TA1537 +S9 ([1]; 10 µg/plate): -1
revertant colonies, TA1537 -S9 ([1]; 10 µg/plate): 141
revertant colonies, TA1538 +S9 ([1]; 10 µg/plate): 8
revertant colonies, TA1538 -S9 ([1]; 10 µg/plate): -2
revertant colonies, TA1537 -S9 (Table 18 (A)) ([1]; 10 µg/plate): 12
revertant colonies, TA1537 +S9 (Table 18 (A)) ([1]; 10 µg/plate): -5
revertant colonies, TA1538 +S9 (Table 18 (A)) ([1]; 10 µg/plate): -5
revertant colonies, TA1538 -S9 (Table 18 (A)) ([1]; 10 µg/plate): 3
revertant colonies, TA1537 +S9 ([1]; 50 µg/plate): 17
revertant colonies, TA1537 -S9 ([1]; 50 µg/plate): 2010
revertant colonies, TA1537 -S9 (Table 18 (A)) ([1]; 50 µg/plate): 12
revertant colonies, TA1537 +S9 (Table 18 (A)) ([1]; 50 µg/plate): 2
revertant colonies, TA1538 +S9 (Table 18 (A)) ([1]; 50 µg/plate): 24
revertant colonies, TA1538 -S9 (Table 18 (A)) ([1]; 50 µg/plate): 2
revertant colonies, TA1537 +S9 ([1]; 100 µg/plate): 35
revertant colonies, TA1537 -S9 ([1]; 100 µg/plate): 795
revertant colonies, TA1537 -S9 (Table 18 (A)) ([1]; 100 µg/plate): 22
revertant colonies, TA1537 +S9 (Table 18 (A)) ([1]; 100 µg/plate): 20
revertant colonies, TA1538 +S9 (Table 18 (A)) ([1]; 100 µg/plate): -2
revertant colonies, TA1538 -S9 (Table 18 (A)) ([1]; 100 µg/plate): -18
revertant colonies, TA1537 +S9 ([1]; 250 µg/plate): 99
revertant colonies, TA1537 -S9 ([1]; 250 µg/plate): 228
revertant colonies, TA1537 -S9 (Table 18 (A)) ([1]; 250 µg/plate): 12
revertant colonies, TA1537 +S9 (Table 18 (A)) ([1]; 250 µg/plate): 40
revertant colonies, TA1538 +S9 (Table 18 (A)) ([1]; 250 µg/plate): -38
revertant colonies, TA1537 +S9 ([1]; 500 µg/plate): 369
revertant colonies, TA1537 -S9 ([1]; 500 µg/plate): 43
revertant colonies, TA1537 -S9 (Table 18 (A)) ([1]; 500 µg/plate): 9
revertant colonies, TA1537 +S9 (Table 18 (A)) ([1]; 500 µg/plate): 52
frameshift mutagenicity (Ames, summary) [1, 2]: a frameshift response in TA98 in the presence of S9 at concentrations of 250µg/plate and above. It also showed a response at 50µg/plate in TA1537 in the presence of S9
base-substitution mutagenicity (Ames, summary) ([1]; two-fold or greater increase in revertants above background and dose dependent response, TA100, TA102): no base substitution mutagenicity
HIV Log Kill (HIV-1; 16 µM, HIV Starting Titer Approximately 5 Logs (Table 10)): 2.0
HIV Log Kill (HIV-1; [3]): 2.1
HIV Log Kill (HIV-1; 32 µM, HIV Starting Titer Approximately 5 Logs (Table 10)): 3.1
HIV Log Kill (HIV-1; [4]): 3.2
HIV Log Kill (HIV-1; 64 µM, HIV Starting Titer Approximately 5 Logs (Table 10)): >3.8
HIV Log Kill (HIV-1; [5]): >2.8

Cc1cc(=O)oc2c(C)c3oc(COCCN)c(C)c3cc12 [Compound 18, 5'-(4-amino-2-oxa)butyl-4,4',8-trimethylpsoralen]
bone marrow toxicity or micronucleus formation (Male Balb/c mice): the acutely lethal dose was reached before there were any signs of bone marrow toxicity or micronucleus formation
revertant colonies, TA98 -S9 ([1]; 10 µg/plate): 21
revertant colonies, TA98 +S9 ([1]; 10 µg/plate): 8
revertant colonies, TA1537 +S9 ([1]; 10 µg/plate, Table 19 (B) experiment, background 7): 8
revertant colonies, TA1537 -S9 ([1]; 10 µg/plate, Table 19 (B) experiment, background 8): 21
revertant colonies, TA98 -S9 ([1]; 50 µg/plate): 303
revertant colonies, TA98 +S9 ([1]; 50 µg/plate): 6
revertant colonies, TA1537 +S9 ([1]; 50 µg/plate, Table 19 (B) experiment, background 7): 6
revertant colonies, TA1537 -S9 ([1]; 50 µg/plate, Table 19 (B) experiment, background 8): 303
revertant colonies, TA98 -S9 ([1]; 100 µg/plate): 390
revertant colonies, TA98 +S9 ([1]; 100 µg/plate): 26
revertant colonies, TA1537 +S9 ([1]; 100 µg/plate, Table 19 (B) experiment, background 7): 26
revertant colonies, TA1537 -S9 ([1]; 100 µg/plate, Table 19 (B) experiment, background 8): 390
revertant colonies, TA98 -S9 ([1]; 200 µg/plate): 225
revertant colonies, TA98 +S9 ([1]; 200 µg/plate): 42
revertant colonies, TA1537 +S9 ([1]; 200 µg/plate, Table 19 (B) experiment, background 7): 42
revertant colonies, TA1537 -S9 ([1]; 200 µg/plate, Table 19 (B) experiment, background 8): 225
mutagenic response (Ames, summary) [1, 2]: only a weak response at high concentrations in the presence of S9 in strains TA 9o and TA 1537
HIV Log Kill (HIV-1; [3]): 1.0
HIV Log Kill (HIV-1; [4]): 1.0
HIV Log Kill (HIV-1; [5]): 3.1
